In patent US20170190744A1 (Vicuron Pharmaceuticals, Inc., priority 2015, published 2017):
Where two headings read alike, the source gives them in different places.

Assays:
gram-positive bacteria = experiment: MIC by broth microdilution (NCCLS), IsoB0 and reference compounds; format: cell-based
Description: Müller Hinton broth (Difco Laboratories, Detroit, Mich., USA) adjusted with CaCl2 and MgCl2 to a final concentrations of 20 mg/L and 10 mg/L respectively.
Adult bovine serum (BS) (batch A05123-159 PAA Laboratories GmBH Haidmannweg Pasching Austria).
The microorganisms used are reference standard strains from the American Type Culture Collection (ATCC, Rockville, USA), Smith Kline and French Laboratories (SKF) and the Upjohn Company (UC, Kalamazoo, Mich., USA).
(§1) MICs were determined by the broth microdilution methodology following the standard NCCLS procedure, with or without 30% bovine serum, using bacterial inocula of approximately 5×10^5 CFU/mL. Tests were read after 20-24 h incubation at 35° C.

gram-negative bacteria [1] = experiment: as above; format: cell-based
Description: as §1

Candida albicans SKF2270 = experiment: as above; format: cell-based
[2] = system: MSSA Staph. aureus Smith 819; experiment: MIC (microbiological activity); format: cell-based; conditions: Staphylococcus aureus
[3] = system: Candida albicans SKF 2270; experiment: MIC by broth microdilution (NCCLS), with or without 30% bovine serum (Example 19); format: cell-based; conditions: Candida albicans, SKF2270
Description: MICs were determined by the broth microdilution methodology following the standard NCCLS procedure (NCCLS Document M7-A6, Vol. 23, No. 2, “Methods for dilution antimicrobial susceptibility tests for bacteria that grow aerobically.” Approved Guideline. January 2003, which can be herein incorporated by reference in its entirety), with or without 30% adult bovine serum (BS) (PAA Laboratories GmBH, Haidmannweg Pasching Austria), using bacterial innocula at approximately 5×10^5 CFU/ml. The media employed included cation-adjusted Müller Hinton broth (Difco Laboratories, Detroit, Mich.) that was used that was adjusted with CaCl2 and MgCl2 to a final concentration of 20 mg/L and 10 mg/L, respectively. Tests were read following 20-24 hours of incubation at 35° C.

MRSA Staph. aureus 3817 = experiment: MIC (microbiological activity); format: cell-based; conditions: Staphylococcus aureus
[4] = system: CR-BSI due to gram-positive bacterial pathogens; experiment: Catheter-related blood stream infection (CR-BSI) trial: efficacy; format: in vivo, human; conditions: microbiological ITT population; dalbavancin 1000 mg day 1 + 500 mg day 8 IV; vancomycin 1000 mg IV every 12 hours
Source text: This study evaluated the safety and efficacy (clinical and microbiological) of a weekly dosing regimen of dalbavancin in the treatment of adults with catheter-related blood stream infection (CR-BSI) due to gram-positive bacterial pathogens, relative to the standard care of treatment, vancomycin.
Patients with CR-BSI due to suspected or known Gram-positive pathogen(s) who met the inclusion/exclusion criteria were randomized to one of two treatment arms in this open-label, comparative, multi-center study. Dalbavancin was administered once weekly in weekly dalbavancin and comparator (vancomycin) was administered daily in vancomycin. Catheter removal was required for patients with Staphylococcus aureus infection; catheter management was left to the Investigator's discretion for patients with coagulase-negative staphylococci (CoNS) infection. Efficacy was clinically based on the improvement or resolution of clinical signs and symptoms of CR-BSI such that no additional antibacterials were warranted, and microbiologically on the eradication or presence of the baseline or other pathogens. […]
Efficacy was evaluated based on clinical and microbiological responses.
For the primary efficacy analysis, 95% confidence intervals were also determined, and for prognostic factor analyses using the primary efficacy variable, logistic regression was used.

gram-negative bacteria [5] = experiment: MIC by broth microdilution (NCCLS), with or without 30% bovine serum (Example 19); format: cell-based
Description: (§2) The compounds were prepared according to the examples above and the methods described in U.S. Patent Application Publication No. 2004/0142883. Individual dalbavancin compounds were purified by HPLC. […] Before dissolution, each sample was analyzed by HPLC and quantified. […] Louis, Mo.), Gentamycin (GE) (Sigma Chemical Co., St. Louis, Mo.), Penicillin G (Pen.G) (Sigma Chemical Co., St. Louis, Mo.), and Amphotericin B (Amph.B) (Sigma Chemical Co., St. Louis, Mo.). The microorganisms used were reference strains obtained from the American Type Culture Collection (ATCC) (Rockville, Md.), SmithKline and French Laboratories (SKF), and the Upjohn Company (UC) (Kalamazoo, Mich.).

gram positive bacteria = experiment: as above; format: cell-based
Description: as §2

[6] = ESI mass spectroscopy of multimers in solution; format: physicochemical; conditions: ESI-MS
Description: Experiments were performed using an Applied Biosystem API III+ mass spectrometer equipped with a TurbolonSpray source, a Triple Quadrupole analyzer, operating in positive ion mode.
The mass spectra were obtained in electrospray positive mode on a Finnigan LCQ^Deca ion trap instrument previously tuned and calibrated in electrospray mode using Ultramark 1621, caffeine and MRFA (L-metionyl-arginyl-phenilalanyl-arginine).

human α-glycoprotein = experiment: Protein binding by isothermal titration microcalorimetry; conditions: 25° C.
Description: For comparison, similar experiments with some necessary modifications were performed using teicoplanin.
Teicoplanin was studied with human albumin and α-glycoprotein.
Integrated heat effects, after correction for heats of dilution, were analyzed by non-linear regression using a simple single-site binding model with the standard Microcal ORIGIN software package. Raw data (μcal/sec) for each injection were integrated to give the total heat effect per addition, then divided by amount of injectant to give kcal/mole of injectant. The same integration was applied for control dilution effects, and this was subtracted from the actual titration data. This provided a differential of the binding curve in which the extent of binding is proportional to the total heat liberated (or absorbed). This was then analyzed by non-linear regression methods in terms of various standard binding models. The simplest model assumes simple non-competitive binding equilibrium, and gives three parameters:

[7] = Enterococcus faecalis, ATCC7080
[8] = Enterococcus faecalis, ATCC29212
[9] = Staphylococcus aureus, ATCC19636
[10] = Staphylococcus aureus, ATCC29213
[11] = Staphylococcus epidermidis, ATCC12228

CN[C@H](CC(C)C)C(=O)N[C@H]1C(=O)N[C@@H](CC(N)=O)C(=O)N[C@H]2C(=O)N[C@H]3C(=O)N[C@H](C(=O)N[C@H](C(=O)O)c4cc(O)cc(O)c4-c4cc3ccc4O)[C@H](O)c3ccc(c(Cl)c3)Oc3cc2cc(c3O[C@@H]2O[C@H](CO)[C@@H](O)[C@H](O)[C@H]2O[C@H]2C[C@](C)(N)[C@H](O)[C@H](C)O2)Oc2ccc(cc2Cl)[C@H]1O [Vancomycin, vancomycin, reference compound]
1 µg/mL: MIC (gram-positive bacteria; [7]) | MIC (gram-positive bacteria; [9]) | MIC (gram-positive bacteria; Streptococcus pyogenes) | MIC (gram positive bacteria) | MIC (gram positive bacteria; [7]) | MIC (gram positive bacteria; [9])
2 µg/mL: MIC (gram-positive bacteria; [8]) | MIC (gram-positive bacteria; [10]) | MIC (gram-positive bacteria; [11]) | MIC (gram positive bacteria; [8]) | MIC (gram positive bacteria; [10]) | MIC (gram positive bacteria; [11])
> 128 µg/mL: MIC (gram-negative bacteria [1]) | MIC (gram-negative bacteria [1]; Escherichia coli) | MIC (gram-negative bacteria [1]; Escherichia coli, ATCC25922) | MIC (gram-negative bacteria [1]; Proteus vulgaris, ATCC881) | MIC (Candida albicans SKF2270) | MIC [3] | MIC (gram-negative bacteria [5]) | MIC (gram-negative bacteria [5]; Escherichia coli) | MIC (gram-negative bacteria [5]; Escherichia coli, ATCC25922) | MIC (gram-negative bacteria [5]; Proteus vulgaris, ATCC881)
0.5 µg/mL: MIC (gram-positive bacteria; Streptococcus pneumoniae, UC41) | MIC [2] | MIC (MRSA Staph. aureus 3817) | MIC (gram positive bacteria; Streptococcus pneumoniae, UC41)
50.0%: overall response success rate at TOC [4]

teicoplanin
does not show multimeric complexes: multimers in solution [6]
0.07 (±0.01) × 10^5M^−1: apparent binding affinity Ka, α-glycoprotein (human α-glycoprotein)
